{"source": "patent US12544375B2", "about": "“Small molecule therapeutic for parkinson's disease paired with a biomarker of therapeutic activity” (The Board of Trustees of the Leland Stanford Junior …, priority 2019, dated 2026)", "system": "LRRK2^G2019S, PINK1 null and SNCA^A53T flies", "test": "Fly lifespan (survival curves)", "format": "in vivo", "method": "FIG. 4A-FIG. 4I. Miro1 Reducer Rescues PD-Relevant Phenotypes in Flies. For all panels, when Miro1 Reducer was not added, the same volume of the solvent, DMSO, was supplied in fly food. Drug administration (2.5 μM) was started from day 2. (FIG. 4A-FIG. 4C) Survival curves of LRRK2^G2019S (FIG. 4A), PINK1^B9 (imprecise excision, null) and PINK1^RV (the precise excision control for PINK1^B9) (FIG. 4B), and SNCA^A53T flies (FIG. 4C). n=58-150. (FIG. 4D) Dopaminergic (DA) neurons in the PPM1/2 clusters of 22-day old flies were immunostained with anti-TH. (FIG. 4D-FIG. 4F) Quantification of the DA neuron number in the PPL1 or PPM1/2 cluster (total number divided by 2 for each brain). (FIG. 4D) LRRK2^G2019S. n=6-8 brains. (FIG. 4E) PINK1^B9 (“−”) and PINK1^RV (“+”). n=9-16. (FIG. 4F) SNCA^A53T. n=9-11. (FIG. 4G-FIG. 4I) Climbing ability (Average PI±S.E.M) of adult flies. n=24-47 flies.\nIn order to cross-validate the neuroprotective effect of Miro1 Reducer in vivo, we fed the compound to three well-established fly PD models: (1) Actin-GAL4>UAS-LRRK2^G2019S (ubiquitous expression of human pathogenic LRRK2); (2) PINK1 null; and (3) Elav-GAL4>UAS-SNCA^A53T (neuronal expression of human pathogenic alpha-synuclein). […]\nFly Behavior and Biochemical Assays. […] Flies were transferred into fresh vials and the numbers of dead and escaped flies were scored 3 times a week. […]"}
{"smiles": "O=C(Nc1ccc(Nc2cc(-n3ccnc3)ncn2)cc1)Nc1cccc(F)c1", "note": "[Miro1 Reducer]", "values": [{"measurement": "long-term toxicity (lifespan)", "setting": "2.5 μM in food from adulthood, wild-type or PD flies", "value": "no long-term toxicity"}, {"measurement": "lifespan of SNCA^A53T flies", "setting": "2.5 μM in food, Log-Rank P=0.00019 0 μM v.s. 2.5 μM", "value": "extended the shortened lifespan"}]}
